Data reported in patent US20240000786A1, “COMPOSITION FOR ENHANCING INTRA-CELLULAR NITRIC OXIDE GENERATION” (INSTITUTE OF LIFE SCIENCES, priority 2020, published 2024).

T1: rNOSIP (Homo sapiens, UniProt Q9Y314)
T1 construct: made in house; host or cells: E. coli BL21 (DE3)
T1 sequence (Q9Y314 with tags, fused parts or gaps): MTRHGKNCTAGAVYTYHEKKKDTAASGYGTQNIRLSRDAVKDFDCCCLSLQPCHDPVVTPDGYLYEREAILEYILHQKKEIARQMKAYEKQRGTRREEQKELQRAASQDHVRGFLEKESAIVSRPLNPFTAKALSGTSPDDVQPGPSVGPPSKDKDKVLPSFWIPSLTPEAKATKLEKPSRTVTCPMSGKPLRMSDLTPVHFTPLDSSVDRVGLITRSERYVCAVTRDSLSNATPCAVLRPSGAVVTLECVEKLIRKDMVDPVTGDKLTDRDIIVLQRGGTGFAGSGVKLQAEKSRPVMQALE

T2: iNOS-NOSIP protein interaction (Homo sapiens, UniProt Q9Y314)
T2 construct: made in house; host or cells: E. coli BL21 (DE3)
T2 sequence (Q9Y314 with tags, fused parts or gaps): T1 sequence (Q9Y314 with tags, fused parts or gaps)

B1: NOSIP: recombinant Nitric oxide synthase interacting protein expressed in E. coli BL21 (DE3) (protein, UniProt Q9Y314 1-301, looked up)
Nitric oxide …: MTRHGKNCTAGAVYTYHEKKKDTAASGYGTQNIRLSRDAVKDFDCCCLSLQPCHDPVVTPDGYLYEREAILEYILHQKKEIARQMKAYEKQRGTRREEQKELQRAASQDHVRGFLEKESAIVSRPLNPFTAKALSGTSPDDVQPGPSVGPPSKDKDKVLPSFWIPSLTPEAKATKLEKPSRTVTCPMSGKPLRMSDLTPVHFTPLDSSVDRVGLITRSERYVCAVTRDSLSNATPCAVLRPSGAVVTLECVEKLIRKDMVDPVTGDKLTDRDIIVLQRGGTGFAGSGVKLQAEKSRPVMQA

Assays:
rNOSIP = target: T1, rNOSIP; assay: Isothermal titration calorimetry (ITC) of rNOSIP with small molecules / 18 mer iNOS peptide (PP2); assay type: binding; settings: for ΔG / ΔH / −TΔS / Kd / N (Sites): ITC 25° C.; for Kd / N (Sites): small molecule/peptide in cell, NOSIP in syringe; for Fold Change (KD): ITC KD relative to iNOS-Peptide2 = 1; for SM binding affinity with NOSIP, hierarchy: ITC, rank order
Procedure: The 18 mer iNOS peptide (PP2) and small molecules were used for physical association of molecules in calorimetric analysis. The molecular association leads to thermodynamics changes such as Gibb's free energy change (ΔG), entropy change (ΔS), enthalpy change (ΔH) and number of binding sites (N) in interacting solution were investigated by isothermal calorimetry MICROCAL PEQ (Malvern) at 25° C. […] The experiment consisted of multiple injections and each injection contained 1.5 μl of binding solution (recombinant NOSIP solution) with 120 second spacing time between subsequent injections. Sequential titrations were carried out and the sample solution was continuously stirred at 270 rpm by the rotating paddle attached to the syringe needle. Multiple injections of NOSIP made into the sample cell containing interacting solution of peptide and small molecules. The titration curves were analyzed using the analysis software provided with the calorimeter.
The 18 mer iNOS peptide (PP2) and five small molecules were used to analyze physical association in calorimetric analysis. The molecular association leads to thermodynamics changes such as Gibb's free energy change (ΔG), entropy change (ΔS), enthalpy change (ΔH) and number of binding sites (N) in interacting solution were investigated by isothermal calorimetry MICROCAL PEQ (Malvern) at 25° C. […] The experiment consisted of multiple injections and each injection contained 1.5 μl of binding solution with 120 second spacing time between subsequent injections. Sequential titrations were carried out and the sample solution was continuously stirred at 270 rpm by the rotating paddle attached to the syringe needle. Multiple injections of NOSIP made into the sample cell containing interacting solution of peptide and small molecules. The titration curves were analyzed using the analysis software provided with the calorimeter.

Mouse BMDMs = assay: Nitric oxide production by individual small molecules in mouse BMDM; assay type: cell-based
[1] = target: T2, iNOS-NOSIP protein interaction; assay: SPR: inhibition of rNOSIP association with immobilized recombinant iNOS by iNOS peptides / small molecules; assay type: binding; settings: for inhibition hierarchy of iNOS-NOSIP protein interaction: SPR, rank order; for Kd: Kd/Ka; for inhibition of binding of NOSIP with iNOS ligand by small molecules: rNOSIP 250 nM, small molecules 1 uM, SPR (FIG. 4)
Procedure: Four different iNOS peptides were synthesized commercially by China peptides and iNOS peptides were used for molecular interaction studies with immobilized recombinant iNOS purified protein. The iNOS peptides mediated inhibition of rNOSIP and riNOS protein association in Bio-Rad XPR 36 surface plasmon resonance biosensor instrument. […] 250 nM of iNOS peptides was used for inhibition assay with immobilized ligand(recombinant iNOS) in SPR analysis. Similar condition and concentration of small molecules were used for inhibition of recombinant protein association with immobilized ligand. […] The rNOSIP protein was incubated with iNOS derived peptide/small molecules for 30 minutes in ice for inhibition assay before the SPR application in our study. The molecular interaction was carried out at 20° C. and kinetic parameters were determined, after fitting the association and dissociation curves to a 1:1 (Langmuir)-binding model. An activated channel without immobilized ligand was used to evaluate nonspecific binding. The response curves were also recorded on control surfaces. Results were calculated after subtraction of the control values using the ProteOn Manager software.
The collected sensorgram data were processed by reference subtraction using double-referencing with the in-line blank buffer. The integrated ProteOn Manager software was used to fit the data with the Langmuir model describing a 1:1 binding stoichiometry. Ka is the association rate constant, Kd is the dissociation rate constant, and KD is the equilibrium dissociation constant, defined by the Kd/Ka ratio for the analytes-ligand binding.
The five small molecules bind with NOSIP and inhibit the association of recombinant NOSIP and recombinant iNOS. The rNOSIP protein was incubated with iNOS derived peptide or small molecules for 30 minutes in ice prior to SPR application. The molecular interaction was carried out at 20° C. and kinetic parameters were determined, after fitting the association and dissociation curves to a 1:1 (Langmuir)-binding model. An activated channel without immobilized ligand (recombinant iNOS) was used to evaluate nonspecific binding. The response curves were also recorded on control surfaces. Results were calculated after subtraction of the control values using the ProteOn Manager software.
The collected sensorgram data were processed by reference subtraction using double-referencing with the in-line blank buffer. The integrated ProteOn
Manager software was used to fit the data with the Langmuir model describing a 1:1 binding stoichiometry. Ka is the association rate constant, Kd is the dissociation rate constant, and KD is the equilibrium dissociation constant, defined by the Kd/Ka ratio for the analytes—ligand binding.

human PBMCs = assay: NO levels (Griess) in human PBMCs, small molecules alone or in combination; assay type: cell-based; settings: 0.1 and 0.01 μM, 24 h
Procedure: PBMCs (1 million cells/ml) from healthy individuals' blood was isolated and were treated with or without NOSIP antagonists (either alone or mixture of equimolar concentration of all 5 small molecule antagonists at 0.1 and 0.01 μM) for 30 min in triplicate wells and incubated for 24 h at 37° C. The culture supernatants were analysed by […] for nitrite concentration using Griess reagent, and the NO levels are shown as mean percent increase over untreated control. The panel on the right top of FIG. 10 depict nitrite levels by individual small molecules in human PBMCs. […] Thus a combined mixture of 5 small molecules will be desirable for use in mouse as well as humans.

recombinant iNOS = target: T3, recombinant iNOS (Homo sapiens, UniProt P35228); assay: iNOS enzyme activity in presence of recombinant NOSIP, Griess reaction; assay type: biochemical; settings: iNOS 0.5 μM, NOSIP 0.5 to 5 μM, substrate L-Arginine
T3 construct: made in house; host or cells: E. coli BL21 (DE3)
Procedure: The human iNOS oxygenase domain (SEQ ID No.: 24) containing 424 nucleotide sequence and NOSIP gene (SEQ ID No.: 23) containing 301 nucleotide sequences were synthesized by GenScript and cloned in pET22b expression vector. The recombinant pET22b: iNOS and pET22b: NOSIP plasmid was used to transform competent E. coli BL21 (DE3) cells. The proteins were over expressed using 0.2 mM IPTG at 25° C. The harvested cells were resuspended and sonicated in 20 mM Tris-HCl, pH 7.5, 200 mM NaCl, 0.05% Triton X-100 and protease inhibitor (Sigma). The expressed proteins were purified by nickel nitrilotriacetic acid column using 250 mM imidazole and gel filtration chromatography. The protein was quantified by Bradford assay (Sigma) and integrity of purified protein was checked on 12% SDS-PAGE.
In a […] assay increasing concentrations of recombinant NOSIP were mixed with recombinant iNOS along with substrate L-Arginine and the resultant product, […] was quantified by using Griess reaction kit. […] Statistical significance was assessed by one way ANOVA, Tukey& #39;s Multiple Comparison Test.

[2] = analyte rNOSIP alone or + peptide/small molecule, ligand r iNOS, 20° C., 1:1 Langmuir
[3] = analyte rNOSIP alone or + peptide/small molecule, ligand r iNOS, 20° C.

T3 sequence (P35228 with tags, fused parts or gaps limits assumed): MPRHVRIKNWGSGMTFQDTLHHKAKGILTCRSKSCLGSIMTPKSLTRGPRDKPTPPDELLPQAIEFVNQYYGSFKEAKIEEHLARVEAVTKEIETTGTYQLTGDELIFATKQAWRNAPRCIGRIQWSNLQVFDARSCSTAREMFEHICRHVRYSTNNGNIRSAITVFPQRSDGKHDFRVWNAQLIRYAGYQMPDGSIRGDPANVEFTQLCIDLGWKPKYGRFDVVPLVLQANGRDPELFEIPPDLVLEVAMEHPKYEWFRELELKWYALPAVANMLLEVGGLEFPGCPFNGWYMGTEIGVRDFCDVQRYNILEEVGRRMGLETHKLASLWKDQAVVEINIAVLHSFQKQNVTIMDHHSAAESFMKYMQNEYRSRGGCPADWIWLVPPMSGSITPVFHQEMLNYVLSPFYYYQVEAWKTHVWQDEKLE

| Molecule | ΔG (rNOSIP) [kcal/mol] | ΔH (rNOSIP) [kcal/mol] | −TΔS (rNOSIP) [kcal/mol] | Kd (rNOSIP) [nM] | N (Sites) (rNOSIP) | Fold Change (KD) (rNOSIP) | SM binding affinity with NOSIP, hierarchy (rNOSIP) | nitric oxide produced, individual small molecules compared (Mouse BMDMs) | inhibition hierarchy of iNOS-NOSIP protein interaction [1] | Ka(1/Ms) [1, 2] | Kd [1, 3] [nM] | inhibition of binding of NOSIP with iNOS ligand by small molecules [1] | kon ([1]; analyte rNOSIP alone or + peptide/small molecule, ligand r iNOS, 20° C., 1:1 Langmuir, read-out: Ka) [M⁻¹ s⁻¹] | nitric oxide produced, individual small molecules compared (human PBMCs) | inhibition of iNOS enzyme activity (Griess) (recombinant iNOS) |
| --- | --- | --- | --- | --- | --- | --- | --- | --- | --- | --- | --- | --- | --- | --- | --- |
| CCN(c1ccccc1)S(=O)(=O)c1ccc(Cl)c(NC(=O)COC(=O)c2ccccc2SCC(=O)Nc2ccc3c(c2)OCO3)c1 [MCULE-8094061955, ({2-chloro-5-[ethyl(phenyl)sulfamoyl]phenyl}carbamoyl)methyl 2-({[(2H-1,3-benzodioxol-5-yl)carbamoyl]methyl}sulfanyl) benzoate] | -8.61 | -9.07 ± 0.251 | 0.459 | 493 ± 63.2 | 0.993 | 0.899 | CC4>CC11>CC6>CC5>CC13>Peptide 2 (iNOS) | more effective with mouse cells | CC4>CC11>CC6>CC5>CC13>iNOS Peptide 2 | 6.7e^−01 1/Ms | 809000 | inhibit the binding of NOSIP with iNOS ligand | – | – | – |
| COc1cc(C)ccc1OCc1nc(C(=O)NCc2n[nH]c3c2CCC3)co1 [MCULE-4640800528, N-({1H,4H,5H,6H-cyclopenta[c]pyrazol-3-yl}methyl)-2[(2-methoxy-4-methylphenoxy)methyl]-1,3-oxazole-4-carboxamide] | -8.70 | -8.54 ± 0.255 | -0.159 | 420 ± 57.5 | 1.04 | 0.766 | CC4>CC11>CC6>CC5>CC13>Peptide 2 (iNOS) | – | CC4>CC11>CC6>CC5>CC13>iNOS Peptide 2 | – | 870000 | inhibit the binding of NOSIP with iNOS ligand | 0.563 | more effective than molecules in human cells | – |
| B1 | – | – | – | – | – | – | – | – | – | 9.57e^+04 1/Ms | 7.11 | – | – | – | inhibits enzyme activity of iNOS |
